Results taken from ChEMBL document CHEMBL3046741, “Initial activity and persistence of insecticides for the control of bollworms (Lepidoptera: Noctuidae) in cotton crops” (2009).

What was measured:
Type in all cases: functional
Helicoverpa armigera [1] = experiment: Insecticidal activity against L5 larvae of Helicoverpa armigera assessed as mortality after 48 hr by leaf disk assay
Earias = experiment: Insecticidal activity against L3 to L4 larvae of Earias spp. assessed as mortality after 48 hr by leaf disk assay
Helicoverpa armigera [2] = experiment: Insecticidal activity against Helicoverpa armigera assessed as time above which insecticide kills less than 50% of larvae by measuring index of persistence under in absence of rain
Helicoverpa armigera [3] = experiment: Insecticidal activity against L2 larvae of Helicoverpa armigera assessed as mortality after 48 hr by leaf disk assay
Helicoverpa armigera [4] = experiment: Insecticidal activity against L3 larvae of Helicoverpa armigera assessed as mortality after 48 hr by leaf disk assay
Helicoverpa armigera [5] = experiment: Insecticidal activity against L1 larvae of Helicoverpa armigera assessed as mortality after 48 hr by leaf disk assay
Diparopsis watersi = experiment: Insecticidal activity against L3 to L4 larvae of Diparopsis watersi assessed as mortality after 48 hr by leaf disc assay
Helicoverpa armigera [6] = experiment: Insecticidal activity against L4 larvae of Helicoverpa armigera assessed as mortality after 48 hr by leaf disk assay
Helicoverpa armigera [7] = experiment: Insecticidal activity against Helicoverpa armigera assessed as time above which insecticide kills less than 50% of larvae by measuring index of persistence in presence of 24 mm of simulated rain applied at three days interval

SMILES	mortality (Helicoverpa armigera [1]) [%]	mortality (Earias) [%]	Time (Helicoverpa armigera [2]) [days]	mortality (Helicoverpa armigera [3]) [%]	mortality (Helicoverpa armigera [4]) [%]	mortality (Helicoverpa armigera [5]) [%]	mortality (Diparopsis watersi) [%]	mortality (Helicoverpa armigera [6]) [%]	Time (Helicoverpa armigera [7]) [days]
O=S1OCC2C(CO1)C1(Cl)C(Cl)=C(Cl)C2(Cl)C1(Cl)Cl (configuration not stated) [ENDOSULFAN]	92.5	99.4	8.7	91.5	94.1	93.3	82.8	89.5	5.2
COC(=O)N(C(=O)N1CO[C@@]2(C(=O)OC)Cc3cc(Cl)ccc3C2=N1)c1ccc(OC(F)(F)F)cc1 [INDOXACARB]	94.5	90.8	8.4	78.9	89.3	86.2	77.7	90.9	3.7
CS/C(C)=N\OC(=O)N(C)SN(C)C(=O)O/N=C(\C)SC [THIODICARB]	96.5	100	27	99.2	94.1	98.6	99.3	97.5	17.2
